Experiments:
Jurkat cells [1] = test: UV-C- and anti-Fas-induced apoptosis in Jurkat cells; type: cell-based, human; conditions: 50 mM imipramine 30 min; 4 hours post UV-C or Fas stimulation
Description: (§1) Others have shown that ceramide is required for Fas-induced apoptosis in some cell types. We looked at the requirement for UV-C-induced ceramide generation in initiating the apoptotic response. By UV-C is meant ultraviolet radiation in the 100-280 nm wavelength range. In these studies imipramine was used to inhibit ASMase-activity. Pre-treatment of Jurkat cells with […] imipramine for 30 min decreased baseline ASMase activity, abrogated UV-C and Fas-induced ASMase activation at 1 min post stimulation and ceramide generation at 2 minutes, and attenuated apoptosis at 4 hours post-stimulation. […] Grassme et al., J Biol Chem. 2001, 276:20589, incorporated herein by reference.
H. Grassme, H. Schwarz, and E. Gulbins, Biochem Biophys Res Commun 284 (4), 1016 (2001), incorporated herein by reference. […] Importantly, we also observed that anti-ceramide and nystatin pretreatment yielded an approximate 1 log increase in clonogenic cell survival compared to vehicle controls after 5-50 J/m^2 UV-C or anti-Fas stimulation. […]
Apoptosis was assessed in vitro by two different techniques. […] Morphologic changes of nuclear apoptosis including chromatin condensation, segmentation and compaction along the periphery of the nucleus or the appearance of apoptotic bodies were quantified using an Axiovert S-100 Zeiss fluorescence microscope as previously described ^33. […]

ASMase = molecular target: T1, ASMase (Homo sapiens, UniProt P17405); test: ASMase activity assay in Jurkat cells stimulated with UV-C or anti-Fas; type: cell-based
T1 construct: Jurkat cells were lysed in PBS containing 0.2% Triton X-100; endogenous in cells; host or cells: Jurkat T lymphocytes (clone E6-1, ATCC)
T1 sequence (P17405 47-631): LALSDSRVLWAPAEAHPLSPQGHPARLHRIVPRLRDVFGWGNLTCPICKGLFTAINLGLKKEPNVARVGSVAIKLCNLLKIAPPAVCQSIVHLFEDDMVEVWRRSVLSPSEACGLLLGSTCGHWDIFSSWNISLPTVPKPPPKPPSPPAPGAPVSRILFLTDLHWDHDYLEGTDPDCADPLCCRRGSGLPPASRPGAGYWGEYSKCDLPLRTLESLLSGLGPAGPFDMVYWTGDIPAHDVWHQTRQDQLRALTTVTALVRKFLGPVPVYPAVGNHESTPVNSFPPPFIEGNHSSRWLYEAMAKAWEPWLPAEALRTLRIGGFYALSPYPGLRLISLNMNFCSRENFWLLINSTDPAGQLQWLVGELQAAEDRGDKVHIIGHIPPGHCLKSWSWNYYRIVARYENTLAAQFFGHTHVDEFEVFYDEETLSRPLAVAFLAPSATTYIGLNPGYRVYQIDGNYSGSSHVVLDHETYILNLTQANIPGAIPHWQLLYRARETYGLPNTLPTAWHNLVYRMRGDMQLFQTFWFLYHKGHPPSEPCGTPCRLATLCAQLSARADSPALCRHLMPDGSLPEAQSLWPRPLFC
Description: as §1, with “reference. […]” for “reference.”
ASMase activity was measured using a fluorescence-based, high-performance liquid chromatographic (HPLC) assay^98. […] ASMase activity was measured by incubating an equal volume of lysate in assay buffer [500 μM BODIPY-C12 sphingomyelin (Molecular Probes, Eugene OR), 0.1 mM ZnCl2, 0.1 M sodium acetate pH 5.0 and 0.6% Triton X-100] for 60 min at 37° C. […] Fluorescence was quantified using a Waters 474 (Waters Corp.) fluorescence detector set to excitation and emission wavelengths of 505 and 540 nm, respectively. The amount of product generated was calculated using a regression equation derived from a standard curve established for known amounts of BODIPY-C12 ceramide standard. […]

Jurkat cells [2] = test: Ceramide generation in Jurkat cells (diacylglycerol kinase assay); type: cell-based, human; conditions: 50 mM imipramine 30 min; 2 minutes post UV-C or Fas stimulation
Description: as §1
Jurkat cells, stimulated with UV-C or CH-11, were incubated for the indicated times at 37° C. Stimulation was terminated by the addition of 2 ml of chloroform:methanol:HCl (100:100:1,v/v/v), and ceramide was quantified by the diacyglycerol kinase assay, as described^97.

With `CN(C)CCCN1c2ccccc2CCc2ccccc21` [imipramine] the apoptosis (Jurkat cells [1]) was “attenuated”, the “UV-C and Fas-induced ASMase activation” value (ASMase; 50 mM imipramine 30 min, 1 min post stimulation) was “abrogated” and the “baseline ASMase activity” value (ASMase; pre-treatment with 50 mM imipramine for 30 min) was “decreased”. For the same compound, the ceramide generation (Jurkat cells [2]) was “abrogated”.

Reference: US12121525B2, “Methods for treating GI syndrome and graft versus host disease” (Sloan Kettering Institute for Cancer Research, priority 2007, dated 2024)
